In ChEMBL document CHEMBL3425494, “Design, synthesis, and antitumor evaluation of novel histone deacetylase inhibitors equipped with a phenylsulfonylfuroxan module as a nitric oxide donor” (J Med Chem, 2015):

Assays:
[1] = test system: HEL; test: Cytotoxicity against human HEL cells assessed as growth inhibition after 48 hrs by MTT assay; format: functional, cell-based
[2] = Cytotoxicity against human U937 cells assessed as growth inhibition after 48 hrs by MTT assay; format: functional, cell-based; conditions: U-937, 48 h
[3] = Cytotoxicity against human MDA cells assessed as growth inhibition after 48 hrs by MTT assay; format: functional, cell-based
[4] = Cytotoxicity against human 3AO cells assessed as growth inhibition after 48 hrs by MTT assay; format: functional, cell-based
[5] = Cytotoxicity against human ES2 cells assessed as growth inhibition after 48 hrs by MTT assay; format: functional, cell-based; conditions: ES-2, 48 h
[6] = target: Histone deacetylase (HDAC1 and HDAC2) (Homo sapiens, UniProt Q13547+Q92769); test: Inhibition of HDAC1/HDAC2 in human HeLa cells using Boc-Lys(acetyl)-AMC as substrate after 30 mins by fluorescence assay; format: cell-based
[7] = Cytotoxicity against human KG1 cells assessed as growth inhibition after 48 hrs by MTT assay; format: functional, cell-based; conditions: KG-1, 48 h
[8] = test system: HEL; test: Cell cycle arrest in human HEL cells assessed as accumulation at G2 phase at 0.5 uM after 48 hrs by propidium iodide staining-based flow cytometric analysis (reference value: 5.28%); format: functional
[9] = test system: HEL; test: Cell cycle arrest in human HEL cells assessed as accumulation at S phase at 0.5 uM after 48 hrs by propidium iodide staining-based flow cytometric analysis (reference value: 46.88%); format: functional
[10] = test system: HeLa; test: Cytotoxicity against human HeLa cells assessed as growth inhibition after 48 hrs by MTT assay; format: functional, cell-based
[11] = Cytotoxicity against human HCT116 cells assessed as growth inhibition after 48 hrs by MTT assay; format: functional, cell-based; conditions: HCT-116, 48 h
[12] = test system: HEL; test: Cytotoxicity against human HEL cells assessed as growth inhibition after 48 hrs by MTT assay in presence of SAHA; format: functional, cell-based
[13] = test system: HEL; test: Cell cycle arrest in human HEL cells assessed as accumulation at G1 phase at 0.5 uM after 48 hrs by propidium iodide staining-based flow cytometric analysis (reference value: 47.87%); format: functional

SMILES	IC50 [6] [µM]	IC50 [1] [µM]	IC50 [2] [µM]	IC50 [3] [µM]	IC50 [4] [µM]	IC50 [5] [µM]	IC50 [7] [nM]	Activity [8] [%]	Activity [9] [%]	IC50 [10] [µM]	IC50 [11] [µM]	IC50 [12] [nM]	Activity [13] [%]
CC(C)(COc1no[n+]([O-])c1S(=O)(=O)c1ccccc1)C(=O)NO	> 1000	5.01	12.5	9.55	18.3	6.88	6080	–	–	–	–	–	–
O=C(CCCCCCC(=O)Nc1ccccc1)NO [VORINOSTAT]	–	–	–	–	–	–	–	0	20.02	–	–	–	–
O=C(/C=C/COc1no[n+]([O-])c1S(=O)(=O)c1ccccc1)NO	3.7	–	–	47.7	57.7	19.1	–	–	–	8.74	–	–	–
O=S(=O)(c1ccccc1)c1c(OCCCCCCO)no[n+]1[O-]	> 1000	2.16	–	–	–	–	–	–	–	–	–	–	–
O=C(CCCCCCOc1no[n+]([O-])c1S(=O)(=O)c1ccccc1)NO	0.054	9.33	9.93	1.21	–	7.73	4270	–	–	–	4.69	–	–
O=C(CCCCCCCOc1no[n+]([O-])c1S(=O)(=O)c1ccccc1)NO	0.063	10.8	9.3	2.7	–	1.32	630	–	–	5.03	–	–	–
O=S(=O)(c1ccccc1)c1no[n+]([O-])c1S(=O)(=O)c1ccccc1	> 1000	0.69	–	–	–	–	–	3.3	43.29	–	–	530	53.4
O=C(COCCOCCOc1no[n+]([O-])c1S(=O)(=O)c1ccccc1)NO	4.3	3.73	12.1	15.8	19.4	18.1	5380	–	–	5.14	11.7	–	–
CCCC(C)(COc1no[n+]([O-])c1S(=O)(=O)c1ccccc1)C(=O)NO (stereo not drawn)	> 1000	71.5	25.4	60.5	88.7	93.3	4060	–	–	–	66.1	–	–

The next lines start with results.

IC50 [6] [µM]	SMILES	IC50 [1] [µM]	IC50 [2] [µM]	IC50 [3] [µM]	IC50 [4] [µM]	IC50 [5] [µM]	IC50 [7] [nM]	Activity [8] [%]	Activity [9] [%]	IC50 [10] [µM]	IC50 [11] [µM]	IC50 [12] [nM]	Activity [13] [%]
0.047	O=C(NO)c1ccc(Oc2no[n+]([O-])c2S(=O)(=O)c2ccccc2)cc1	0.92	4.73	6.66	4.35	2.19	1240	–	–	1.73	2.7	–	–
0.13	O=C(CCCCOc1no[n+]([O-])c1S(=O)(=O)c1ccccc1)NO	1.03	2.91	2.53	4.3	2.53	1910	–	–	3.65	2.18	–	–
0.047	O=C(CCCOc1no[n+]([O-])c1S(=O)(=O)c1ccccc1)NO	0.67	3.3	6.2	22	3.78	1480	–	–	4.79	–	–	–
1.6	O=C(NO)c1cccc(Oc2no[n+]([O-])c2S(=O)(=O)c2ccccc2)c1	2.6	6.49	13.9	9.94	4.19	1860	–	–	4.67	4.57	–	–
0.14	O=C(Cc1ccc(Oc2no[n+]([O-])c2S(=O)(=O)c2ccccc2)cc1)NO	13	5.01	15	22.2	4.13	1800	–	–	10.4	14.2	–	–
1.5	O=C(COCCOc1no[n+]([O-])c1S(=O)(=O)c1ccccc1)NO	6.79	8.15	15.1	19.8	8.69	7400	–	–	–	13.4	–	–
7.3	COc1cc(C(=O)NO)ccc1Oc1no[n+]([O-])c1S(=O)(=O)c1ccccc1	5.55	3.64	8.02	1.24	3.55	1650	–	–	2.26	5.03	–	–
0.15	O=C(/C=C/c1ccc(Oc2no[n+]([O-])c2S(=O)(=O)c2ccccc2)cc1)NO	2.41	16.1	25.6	38.1	24.1	2750	–	–	10.4	8.09	–	–
